Results published in publication PMC3192013 (ChemMedChem, 2011).

Test system: Stat3 (Stat3–Stat3:DNA complex, EMSA)
Experiment: EMSA, Stat3-Stat3:DNA disruption
Format: biochemical
Details: nuclear extract

Compound | IC50
Cc1ccc(S(=O)(=O)N(CC(=O)N(Cc2ccccc2)c2ccc(C(=O)O)c(O)c2)C(=O)OC(C)(C)C)cc1 [compound 15, 15] | > 300 µM
Cc1ccc(S(=O)(=O)N(CC(=O)Nc2ccc(C(=O)O)c(O)c2)C(=O)OC(C)(C)C)cc1 [compound 11, 11] | > 300 µM
Cc1ccc(S(=O)(=O)N(C)CC(=O)Nc2ccc(C(=O)O)c(O)c2)cc1 [compound 10, 10] | > 300 µM
Cc1ccc(S(=O)(=O)OCC(=O)N(Cc2ccccc2)c2ccc(C(=O)O)c(O)c2)cc1 [compound 12, SF-1-120] | > 300 µM
Cc1ccc(S(=O)(=O)NCC(=O)Nc2ccc(C(=O)O)c(O)c2)cc1 [compound 9, SF-1-082] | > 300 µM
Cc1ccc(S(=O)(=O)NCC(=O)N(Cc2ccccc2)c2ccc(C(=O)O)c(O)c2)cc1 [compound 13, 13] | > 300 µM
Cc1ccc(S(=O)(=O)NCC(=O)N(Cc2ccc(C3CCCCC3)cc2)c2ccc(C(=O)O)c(O)c2)cc1 [compound 41, SF-1-083] | 95 ± 9 µM

Other lines, results leading:

IC50 | Compound
> 300 µM | Cc1ccc(S(=O)(=O)N(C)CC(=O)N(CC2CCN(c3ccc(C#N)cc3)CC2)c2ccc(C(=O)O)c(O)c2)cc1 [27jc, 27 jc]
50 ± 15 µM | Cc1ccc(S(=O)(=O)N(C)CC(=O)N(Cc2ccc(C3CCN(S(=O)(=O)c4ccc(C#N)cc4)CC3)cc2)c2ccc(C(=O)O)c(O)c2)cc1 [27kg, 27 kg]
> 300 µM | Cc1ccc(S(=O)(=O)N(C)CC(=O)N(CC2CCCCC2)c2ccc(C(=O)O)c(O)c2)cc1 [27e, 27 e]
194 ± 47 µM | Cc1ccc(S(=O)(=O)N(C)CC(=O)N(Cc2ccc(C(C)(C)C)cc2)c2ccc(C(=O)O)c(O)c2)cc1 [27f, SF-1-068]
45 ± 12 µM | Cc1ccc(S(=O)(=O)N(C)CC(=O)N(Cc2ccc(C3CCN(c4ccc(C#N)cc4)CC3)cc2)c2ccc(C(=O)O)c(O)c2)cc1 [27kd, 27 kd]
> 300 µM | Cc1ccc(S(=O)(=O)N(C)CC(=O)N(CC2CCN(c3ncccn3)CC2)c2ccc(C(=O)O)c(O)c2)cc1 [27jd, 27 jd]
> 300 µM | Cc1ccc(S(=O)(=O)N(C)CC(=O)N(Cc2ccc(C3CCN(C(=O)OC(C)(C)C)CC3)cc2)c2ccc(C(=O)O)c(O)c2)cc1 [27kc, 27 kc]
> 300 µM | Cc1ccc(S(=O)(=O)N(C)CC(=O)N(Cc2ccc(C3CCN(C(=O)C(F)(F)F)CC3)cc2)c2ccc(C(=O)O)c(O)c2)cc1 [27ka, 27 ka]
> 300 µM | Cc1ccc(S(=O)(=O)N(C)CC(=O)N(Cc2ccc(C3CCNCC3)cc2)c2ccc(C(=O)O)c(O)c2)cc1 [27kb, 27 kb]
260 ± 47 µM | Cc1ccc(S(=O)(=O)N(C)CC(=O)N(Cc2ccc(C#N)cc2)c2ccc(C(=O)O)c(O)c2)cc1 [27c, SF-1-073]
> 300 µM | Cc1ccc(S(=O)(=O)N(C)CC(=O)N(CC2CCN(C(=O)OC(C)(C)C)CC2)c2ccc(C(=O)O)c(O)c2)cc1 [27jb, 27 jb]

Same assay, conditions: nuclear extract; Table 2 prints 295 ± 35

IC50 | Compound
292 ± 35 µM | Cc1ccc(S(=O)(=O)N(C)CC(=O)N(Cc2ccccc2)c2ccc(C(=O)O)c(O)c2)cc1 [compound 14, SF-1-062]

Same assay, conditions: read-out: [drawing 30] / IC50; nuclear extract

IC50 | Compound
> 300 µM | Cc1ccc(S(=O)(=O)N(C)CC(=O)N(Cc2ccc(-c3ccc(C(N)=O)cc3)cc2)c2ccc(C(=O)O)c(O)c2)cc1 [27lg, 27 lg]
> 300 µM | Cc1ccc(S(=O)(=O)N(C)CC(=O)N(Cc2ccc(-c3cccc(C(N)=O)c3)cc2)c2ccc(C(=O)O)c(O)c2)cc1 [27lc, 27 lc]
191 ± 8 µM | COC(=O)c1cccc(-c2ccc(CN(C(=O)CN(C)S(=O)(=O)c3ccc(C)cc3)c3ccc(C(=O)O)c(O)c3)cc2)c1 [27la, 27 la]
274 ± 10 µM | Cc1ccc(S(=O)(=O)N(C)CC(=O)N(Cc2ccc(-c3ccc(C#N)cc3)cc2)c2ccc(C(=O)O)c(O)c2)cc1 [27lf, 27 lf]

Same assay, conditions: read-out: [drawing 30] / IC50; nuclear extract; label printed 27 gld

IC50 | Compound
141 ± 10 µM | COC(=O)c1ccc(-c2ccc(CN(C(=O)CN(C)S(=O)(=O)c3ccc(C)cc3)c3ccc(C(=O)O)c(O)c3)cc2)cc1 [27ld, 27 ld]

Same assay, conditions: read-out: [drawing 31] / IC50; nuclear extract

IC50 | Compound
43 ± 1.3 µM | Cc1ccc(S(=O)(=O)N(C)CC(=O)N(Cc2ccc(-c3ccc(-c4ccc(C(N)=O)cc4)cc3)cc2)c2ccc(C(=O)O)c(O)c2)cc1 [27nh, 27 nh]

Test system: Stat3 (Stat3–Stat3:DNA complex, EMSA)
Experiment: in vitro Stat3 inhibition
Format: biochemical
Details: assay not given

IC50 | Compound
> 300 µM | O=C(O)c1ccc(N(Cc2ccc(C3CCCCC3)cc2)C(=O)CO)cc1O [compound 47, primary alcohol 47]
